These results are taken from patent US6495683B2, “4-oxo-4,7-dihydro-thieno[2,3-b]pyridine-5-carboxamides as antiviral agents” (Pharmacia and Upjohn Company, priority 1999, dated 2002).

One series deals with T1, HCMV polymerase (Human cytomegalovirus, UniProt P08546).
T1 construct: made in house; host or cells: recombinant baculovirus-infected SF-9 cells
As to the kind of experiment: biochemical. As for the experimental part:
The HCMV polymerase assay is performed using a scintillation proximity assay (SPA) as described in several references, such as N. D. Cook, et al., Pharmaceutical Manufacturing International, pages 49-53 (1992); K. Takeuchi, Laboratory Practice, September issue (1992); U.S. Pat. No. 4,568,649 (1986); which are incorporated by reference herein. Reactions are performed in 96-well plates. The assay is conducted in 100 μl volume with 5.4 mM HEPE (pH 7.5), 11.7 mM KCl, 4.5 mM MgCl2, 0.36 mg/ml BSA, and 90 nM ^3H-dTTP. Assays are run with and without CHAPS, (3-[(3-cholamidopropyl)-dimethylammonio]-1-propane-sulfonate) at a final concentration of 2 mM. HCMV polymerase is diluted in enzyme dilution buffer containing 50% glycerol, 250 mM NaCl, 10 mM HEPES (pH 7.5), 100 μg/ml BSA, and 0.01% sodium azide. The HCMV polymerase, which is expressed in recombinant baculovirus-infected SF-9 cells and purified according to literature procedures, is added at 10% (or 10 μl) of the final reaction volume, i.e., 100 μl. Compounds are diluted in 50% DMSO and 10 μl are added to each well. Control wells contain an equivalent concentration of DMSO. Unless noted otherwise, reactions are initiated via the addition of 6 nM biotinylated poly(dA)-oligo(dT) template/primer to reaction mixtures containing the enzyme, substrate, and compounds of interest. Plates are incubated in a 25 C or 37 C H2O bath and terminated via the addition of 40 μl/reaction of 0.5 M EDTA (pH 8) per well. Reactions are terminated within the time-frame during which substrate incorporation is linear and varied depending upon the enzyme and conditions used, i.e., 30 min. for HCMV polymerase. Ten μl of streptavidin-SPA beads (20 mg/ml in PBS/10% glycerol) are added following termination of the reaction. Plates are incubated 10 min. at 37 ° C., then equilibrated to room temperature, and counted on a Packard Topcount. Linear regressions are performed and IC50's are calculated using computer software.
A modified version of the above HCMV polymerase assay is performed as described above, but with the following changes: Compounds are diluted in 100% DMSO until final dilution into assay buffer. In the previous assay, compounds are diluted in 50% DMSO. 4.5 mM dithiothreotol (DTT) is added to the polymerase buffer.

Where [1] appears, read: modified SPA assay: compounds diluted in 100% DMSO, 4.5 mM DTT in polymerase buffer, read-out: polymerase IC50 (μM) HCMV.

Structures are written as SMILES. Where two headings read alike, the source gives them in different places.

T1 sequence (P08546 whole entry): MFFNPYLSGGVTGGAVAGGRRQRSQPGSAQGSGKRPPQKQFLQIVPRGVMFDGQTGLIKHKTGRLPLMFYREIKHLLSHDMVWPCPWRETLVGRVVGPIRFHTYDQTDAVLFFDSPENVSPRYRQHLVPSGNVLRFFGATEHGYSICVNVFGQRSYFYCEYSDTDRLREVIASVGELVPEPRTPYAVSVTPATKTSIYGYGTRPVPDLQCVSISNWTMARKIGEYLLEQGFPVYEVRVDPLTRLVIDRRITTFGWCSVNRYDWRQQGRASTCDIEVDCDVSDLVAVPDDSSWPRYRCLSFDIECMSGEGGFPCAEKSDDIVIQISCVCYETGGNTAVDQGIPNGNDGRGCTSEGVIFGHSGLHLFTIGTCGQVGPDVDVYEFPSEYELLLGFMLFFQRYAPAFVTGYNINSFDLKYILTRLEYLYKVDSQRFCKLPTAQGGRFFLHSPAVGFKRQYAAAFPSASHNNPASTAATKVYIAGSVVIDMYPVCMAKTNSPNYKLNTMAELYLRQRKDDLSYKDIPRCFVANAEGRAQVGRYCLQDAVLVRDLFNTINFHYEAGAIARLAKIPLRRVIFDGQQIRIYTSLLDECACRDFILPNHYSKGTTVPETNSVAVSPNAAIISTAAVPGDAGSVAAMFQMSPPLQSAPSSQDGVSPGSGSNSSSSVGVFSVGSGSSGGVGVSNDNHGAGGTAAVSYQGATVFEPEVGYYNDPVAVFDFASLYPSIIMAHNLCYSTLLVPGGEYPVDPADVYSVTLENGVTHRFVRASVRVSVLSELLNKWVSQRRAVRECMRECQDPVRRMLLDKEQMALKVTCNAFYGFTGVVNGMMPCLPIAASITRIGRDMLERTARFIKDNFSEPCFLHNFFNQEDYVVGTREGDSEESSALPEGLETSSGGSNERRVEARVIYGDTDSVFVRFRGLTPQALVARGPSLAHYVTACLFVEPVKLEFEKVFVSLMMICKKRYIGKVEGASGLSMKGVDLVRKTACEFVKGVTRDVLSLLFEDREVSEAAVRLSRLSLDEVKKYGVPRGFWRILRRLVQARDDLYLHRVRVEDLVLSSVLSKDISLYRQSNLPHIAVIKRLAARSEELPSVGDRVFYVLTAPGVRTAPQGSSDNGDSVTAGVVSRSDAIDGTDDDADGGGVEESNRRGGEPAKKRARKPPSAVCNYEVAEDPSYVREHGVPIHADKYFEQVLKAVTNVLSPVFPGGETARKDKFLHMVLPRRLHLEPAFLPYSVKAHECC

For orientation: melting point means the temperature of the solid-liquid transition. Broadly, the IC50 is the concentration that inhibits the measured activity by half. In the case of `CCn1cc(C(=O)NCc2ccc(Cl)cc2)c(=O)c2cc(C#CCOC(=O)CCC(=O)O)sc21` [Example 29, 4-{[3-(5-{[(4-Chlorobenzyl)amino]carbonyl}-7-ethyl-4-oxo-4,7-dihydrothieno[2,3-b]pyridin-2-yl)-2-propynyl]oxy}-4-oxobutanoic Acid], the melting point was in the range of 180 to 182 °C. For the same compound, the IC50 at HCMV polymerase (setting [1]) came out at 6.5 µM.

In turn, `CCn1cc(C(=O)NCc2ccc(Cl)cc2)c(=O)c2cc(C#CCOC(=O)CN3CCOCC3)sc21` [Example 30, 3-(5-{[(4-Chlorobenzyl)amino]carbonyl}-7-ethyl-4-oxo-4,7-dihydrothieno[2,3-b]pyridin-2-yl)-2-propynyl 2-(4-Morpholinyl)acetate] registered a melting point of 168 to 170 °C. For the same compound, the IC50 on HCMV polymerase (setting [1]) was determined as 28.2 µM.

`CCn1cc(C(=O)NCc2ccc(Cl)cc2)c(=O)c2cc(C#CCOC(=O)c3cccc(CN4CCOCC4)c3)sc21` [Example 32, 3-(5-{[(4-Chlorobenzyl)amino]carbonyl}-7-ethyl-4-oxo-4,7-dihydrothieno[2,3-b]pyridin-2-yl)-2-propynyl 3-(4-Morpholinylmethyl)benzoate] registered a melting point of 147 to 150 °C. In addition, the half-maximal inhibitory concentration (IC50) at HCMV polymerase (setting [1]) was greater than 50 µM.

Compound `COC(=O)c1cc2c(O)c(C(=O)NCc3ccc(Cl)cc3)cnc2s1` [Example 33, Methyl 5-{[(4-Chlorobenzyl)amino]carbonyl}-4-hydroxythieno[2,3-b]pyridine-2-carboxylate] came in with a melting point of 238 to 240 °C. The IC50 at HCMV polymerase (setting [1]) was 22.4 µM.

`O=C(NCc1ccc(Cl)cc1)c1cnc2sc(CO)cc2c1O` [Example 34, N-(4-Chlorobenzyl)-4-hydroxy-2-(hydroxymethyl)thieno[2,3-b]pyridine-5-carboxamide] gave a melting point of 205 to 210 °C. Moreover, the IC50 at HCMV polymerase (setting [1]) was greater than 20 µM.

Compound `Cn1cc(C(=O)NCc2ccc(Cl)cc2)c(=O)c2cc(CO)sc21` [Example 35, N-(4-Chlorobenzyl)-2-(hydroxymethyl)-7-methyl-4-oxo-4,7-dihydrothieno[2,3-b]pyridine-5-carboxamide] returned a melting point of 222 to 225 °C. For the same compound, the IC50 on HCMV polymerase (setting [1]) was 18.5 µM.

For the compound `Cn1cc(C(=O)NCc2ccc(Cl)cc2)c(=O)c2cc(CN3CCSCC3)sc21` [Example 38, N-(4-Chlorobenzyl)-7-methyl-4-oxo-2-(4-thiomorpholinyl-methyl)-4,7-dihydrothieno[2,3-b]pyridine-5-carboxamide], the melting point was 215 to 218 °C (dec.). The IC50 on HCMV polymerase (setting [1]) was 2.6 µM.

For the compound `CN(Cc1cc2c(=O)c(C(=O)NCc3ccc(Cl)cc3)cn(C)c2s1)CC(O)c1ccc(O)cc1` (stereo not drawn) [Example 39, N-(4-Chlorohenzyl)-2-(((2-hydroxy-2-(4-hydroxyphenyl)ethyl)(methyl)amino)methyl)-7-methyl-4-oxo-4,7-dihydrothieno[2,3-b]pyridine-5-carboxamide], the melting point was determined as 187 °C. For the same compound, the IC50 on HCMV polymerase (setting [1]) is less than 0.31 µM.

Compound `CN(Cc1cc2c(=O)c(C(=O)NCc3ccc(Cl)cc3)cn(C)c2s1)CC(O)c1ccccc1` (stereo not drawn) [Example 40, N-(4-Chlorobenzyl)-2-(((2-hydroxy-2-phenylethyl)(methyl)-amino)methyl)-7-methyl-4-oxo-4,7-dihydrothieno[2,3-b]pyridine-5-carboxamide] gave a melting point of 184 to 187 °C. Besides, the IC50 at HCMV polymerase (setting [1]) is less than 0.31 µM.

As to `O=C(NCc1ccc(Cl)cc1)c1cnc2sc(CN3CCOCC3)cc2c1O` [Example 41, N-(4-Chlorobenzyl)-4-hydroxy-2-(4-morpholinylmethyl)-thieno[2,3-b]pyridine-5-carboxamide], the melting point is 193 to 195 °C. The IC50 on HCMV polymerase was determined as 3.4 µM.

Take `CCn1cc(C(=O)NCc2ccc(Cl)cc2)c(=O)c2cc(CN3CCOCC3)sc21` [Example 42, N-(4-Chlorobenzyl)-7-ethyl-2-(4-morpholinylmethyl)-4-oxo-4,7-dihydrothieno[2,3-b]pyridine-5-carboxamide]: the melting point lay within 194 to 196 °C. Further, the IC50 at HCMV polymerase (setting [1]) worked out at 1.9 µM.

The compound `CCCn1cc(C(=O)NCc2ccc(Cl)cc2)c(=O)c2cc(CN3CCOCC3)sc21` [Example 43, N-(4-Chlorobenzyl)-2-(4-morpholinylmethyl)-4-oxo-7-propyl-4,7dihydrothieno[2,3-b]pyridine-5-carboxamide] registered a melting point of 174 to 176 °C. For the same compound, on HCMV polymerase (setting [1]), the IC50 amounted to 1.9 µM.

`CC(C)n1cc(C(=O)NCc2ccc(Cl)cc2)c(=O)c2cc(CN3CCOCC3)sc21` [Example 44, N-(4-Chlorobenzyl)-7-isopropyl-2-(4-morpholinylmethyl)-4-oxo-4,7-dihydrothieno[2,3-b]pyridine-5-carboxamide] gave a melting point of 191 to 195 °C. Moreover, on HCMV polymerase (setting [1]), the IC50 was 4.7 µM.

As for `Cn1cc(C(=O)NCc2ccc(F)cc2)c(=O)c2cc(CN3CCOCC3)sc21` [Example 45, N-(4-Fluorobenzyl)-7-methyl-2-(4-morpholinylmethyl)-4-oxo-4,7-dihydrothieno[2,3-b]pyridine-5-carboxamide], the melting point was in the range of 214 to 216 °C. Also, the IC50 on HCMV polymerase (setting [1]) came to 2.6 µM.

For `Cn1cc(C(=O)NCc2ccc(Br)cc2)c(=O)c2cc(CN3CCOCC3)sc21` [Example 46, N-(4-Bromobenzyl)-7-methyl-2-(4-morpholinylmethyl)-4-oxo-4,7-dihydrothieno[2,3-b]pyridine-5-carboxamide], the melting point was 245 to 246 °C. Also, on HCMV polymerase (setting [1]), the IC50 came out at 3.8 µM.

`O=C(NCc1ccc(Cl)cc1)c1cnc2sc(C(=O)N3CCOCC3)cc2c1O` [Example 47, N-(4-Chlorobenzyl)-4-hydroxy-2-(4-morpholinyl-carbonyl)-thieno[2,3-b]pyridine-5-carboxamide] gave a melting point of 217 to 219 °C. The IC50 on HCMV polymerase (setting [1]) is greater than 20 µM.

For `Cn1cc(C(=O)NCc2ccc(Cl)cc2)c(=O)c2cc(C(=O)N3CCOCC3)sc21` [Example 48, N-(4-Chlorobenzyl)-7-methyl-2-(4-morpholinyl-carbonyl)-4 dothieno[2,3-b]pyridine-5-carboxamide], the melting point is 244 to 245 °C (dec.). Further, the IC50 at HCMV polymerase (setting [1]) was found to be 19 µM.

As to `O=C(NCc1ccc(Cl)cc1)c1cn(Cc2ccccc2)c2sc(CN3CCOCC3)cc2c1=O` [Example 49, 7-Benzyl-N-(4-chlorobenzyl)-2-(4-morpholinylmethyl)-4-oxo-4,7-dihydrothieno[2,3-b]pyridine-5-carboxamide], the melting point was 225 to 226.5 °C. The IC50 at HCMV polymerase (setting [1]) is 3.2 µM.

As for `O=C(NCc1ccc(Cl)cc1)c1cn(Cc2cccc(F)c2)c2sc(CN3CCOCC3)cc2c1=O` [Example 50, N-(4-Chlorobenzyl)-7-(3-fluorobenzyl)-2-(4-morpholinyl-methyl)-4-oxof47-dihydrothieno[2,3-b]pyridine-5-carboxamide], the melting point is 214 to 215 °C. The IC50 at HCMV polymerase (setting [1]) was 3.8 µM.

`O=C(NCc1ccc(Cl)cc1)c1cn(CCCc2ccccc2)c2sc(CN3CCOCC3)cc2c1=O` [Example 51, N-(4-Chlorobenzyl)-2-(4-morpholinylmethyl)-4-oxo-7-(3-phenylpropyl)-4,7-dihydrothieno[2,3-b]pyridine-5-carboxamide] yielded a melting point of 169 to 171 °C. Moreover, on HCMV polymerase (setting [1]), the IC50 was 1.2 µM.

`O=C(NCc1ccc(Cl)cc1)c1cn(CC2CCCO2)c2sc(CN3CCOCC3)cc2c1=O` (stereo not drawn) [Example 52] registered a melting point of 191 to 195 °C. On HCMV polymerase (setting [1]), the IC50 is 1.5 µM.

The compound `O=C(NCc1ccc(Cl)cc1)c1cn(CCN2CCCC2)c2sc(CN3CCOCC3)cc2c1=O` [Example 53, N-(4-Chlorobenzyl)-2-(4-morpholinylmethyl)-4-oxo-7-[2-(1-pyrrolidinyl)ethyl]-4,7-dihydrothieno[2,3-b]pyridine-5-carboxamide] yielded a melting point of 178 to 180 °C. Also, the IC50 on HCMV polymerase (setting [1]) was found to be 4 µM.

Regarding `O=C(NCc1ccc(Cl)cc1)c1cn(Cc2cccnc2)c2sc(CN3CCOCC3)cc2c1=O` [Example 54, N-(4-Chlorobenzyl)-2-(4-morpholinylmethyl)-4-oxo-7-(3-pyridinylmethyl)-4,7-dihydrothieno[2,3-b]pyridine-5-carboxamide], the melting point is 214 to 215 °C. Also, the IC50 on HCMV polymerase (setting [1]) came to 3.2 µM.

Take `O=C(NCc1ccc(Cl)cc1)c1cn(Cc2ccncc2)c2sc(CN3CCOCC3)cc2c1=O` [Example 55, N-(4-Chlorobenzyl)-2-(4-morpholinylmethyl)-4-oxo-7-(4-pyridinylmethyl)-4,7-dihydrothieno[2,3-b]pyridine-5-carboxamide]: the melting point is 208 to 210 °C (dec.). Further, the half-maximal inhibitory concentration (IC50) on HCMV polymerase (setting [1]) was determined as 5 µM.
